Data set [1] can be described thus: Cytotoxicity against M-CSF induced C57BL/6J mouse BMMC cells assessed as cell viability at 10 uM incubated for 48 hrs by CCK-8 assay relative to control. The data set is classed as toxicity, cell-based. To be noted: read-out: Activity.
Data set [2] deals with BMMC. The data set can be described thus: Anti-osteoclastogenesis activity in M-CSF/RANKL-induced C57BL/6J mouse BMMC cells assessed as inhibition of osteoclast differentiation at 5 uM incubated for 7 days by TRAP staining based analysis relative to control. The data set is classed as functional. To be noted: 168 h, time 7 day.
Data set [3] has as its system BMMC. The experiment in a line: Anti-osteoclastogenesis activity in M-CSF/RANKL-induced C57BL/6J mouse BMMC cells assessed as inhibition of osteoclast differentiation at 10 uM incubated for 7 days by TRAP staining based analysis relative to control. It counts as functional. To be noted: 168 h, time 7 day.
Data set [4] relates to BMMC. The experiment in a line: Anti-osteoclastogenesis activity in M-CSF/RANKL-induced C57BL/6J mouse BMMC cells assessed as inhibition of osteoclast differentiation at 1 uM incubated for 7 days by TRAP staining based analysis relative to control. The data set is classed as functional. The following applies: 168 h, time 7 day.
Data set [5] deals with BMMC. The experiment in a line: Anti-osteoclastogenesis activity in M-CSF/RANKL-induced C57BL/6J mouse BMMC cells assessed as inhibition of osteoclast differentiation incubated for 7 days by TRAP staining based analysis. To be noted: 168 h. The data set is classed as functional, cell-based.
In data set [6] the test system is Mus musculus. The experiment in a line: Anti-osteoporosis activity in ovariectomized C57BL/6 mouse assessed as prevention of bone loss by measuring increase in BV/TV at 25 ug/kg, sc administered every day for 6 weeks by micro-CT analysis relative to control. It counts as functional. To be noted: dose 25 µg/kg.
Data set [7] can be described thus: Toxicity in ovariectomized female C57BL/6 mouse assessed as reduction in body weight at 25 ug/kg, sc administered every day for 6 weeks. It counts as organism-based. To be noted: in vivo, 0.025 mg/kg, 1008 h, dose 25 µg/kg.
Data set [8] relates to Mus musculus. The experiment in a line: Anti-osteoporosis activity in ovariectomized C57BL/6 mouse assessed as prevention of bone loss by measuring increase in trabecular number at 25 ug/kg, sc administered every day for 6 weeks by micro-CT analysis relative to control. The data set is classed as functional.
The test system of data set [9] is Mus musculus. The data set can be described thus: Anti-osteoporosis activity in ovariectomized C57BL/6 mouse assessed as prevention of bone loss by measuring increase in trabecular thickness at 25 ug/kg, sc administered every day for 6 weeks by micro-CT analysis relative to control. The data set is classed as functional.
Data set [10] has as its system Mus musculus. The data set can be described thus: Anti-osteoporosis activity in ovariectomized C57BL/6 mouse assessed as prevention of bone loss by measuring decrease in trabecular spacing at 25 ug/kg, sc administered every day for 6 weeks by micro-CT analysis relative to control. It counts as functional. Details: scale not given: the % may be the effect or the level left.

Data set [11] deals with BMMC. The experiment in a line: Anti-osteoclastogenesis activity in M-CSF/RANKL-induced C57BL/6J mouse BMMC cells assessed as inhibition of osteoclast differentiation at 0.1 uM incubated for 7 days by TRAP staining based analysis relative to control. It counts as functional. To be noted: 168 h, time 7 day.

Bounds are passed on as bounds.

What is called inhibition is the relative decrease from the control value, in per cent. `C[C@H](CO)[C@H]1CC[C@H]2[C@@H]3CC=C4C(C)(C)c5nc(N)ncc5C[C@]4(C)[C@H]3CC[C@]12C`: the viability at 48 h, 10 µM in data set [1] is not below 100%. In addition, in [2], the inhibition at 5 µM is 87.3%. In addition, the inhibition at 10 µM in [3] stood at 100%. The inhibition at 1 µM in [4] worked out at 25.9%.
For `C[C@H](CO)[C@H]1CC[C@H]2[C@@H]3CC=C4C(C)(C)c5c(cnn5-c5ccccc5)C[C@]4(C)[C@H]3CC[C@]12C`, in that order: not below 100%, 0%, 18.9% and 0%.
For `C[C@H](CO)[C@H]1CC[C@H]2[C@@H]3CC=C4C(C)(C)c5[nH]ncc5C[C@]4(C)[C@H]3CC[C@]12C`, in data set [1], the viability at 48 h, 10 µM is not below 100%. In [2], the inhibition at 5 µM is 87%. For the same molecule, the inhibition at 10 µM in data set [3] was 100%. Also, the inhibition at 1 µM in data set [4] stood at 34.6%.
The term IC50 denotes the concentration at which inhibition is half-maximal. With `C[C@H](CO)[C@H]1CC[C@H]2[C@@H]3CCC4=CC(=O)CC[C@]4(C)[C@H]3CC[C@]12C`, the viability at 48 h, 10 µM in [1] is not below 100%. The inhibition at 5 µM in data set [2] was determined as 78.6%. The inhibition at 10 µM in data set [3] was found to be 100%. Also, the half-maximal inhibitory concentration (IC50) in data set [5] was 2320 nM.
Regarding `C[C@H](CO)[C@H]1CC[C@H]2[C@@H]3CC=C4C(C)(C)c5nc6ccccc6cc5C[C@]4(C)[C@H]3CC[C@]12C`, the viability at 48 h, 10 µM in [1] is not below 100%. The inhibition at 5 µM in [2] turned out to be 47.2%. In addition, the inhibition at 10 µM in data set [3] came out at 93.9%. The inhibition at 1 µM in data set [4] was 37.8%.
For `C[C@H](CO)[C@H]1CC[C@H]2[C@@H]3CC=C4C(C)(C)c5nccnc5C[C@]4(C)[C@H]3CC[C@]12C`, the viability at 48 h, 10 µM in data set [1] was not below 100%. For the same molecule, in [2], the inhibition at 5 µM was 44.9%. In addition, the inhibition at 10 µM in [3] was determined as 67.8%. Moreover, in data set [4], the inhibition at 1 µM was 13.9%.
As to `CC[C@H](C)[C@H](NC(=O)[C@H](CCC(=O)O)NC(=O)[C@H](CO)NC(=O)[C@@H](NC(=O)[C@@H](N)CO)C(C)C)C(=O)N[C@@H](CCC(N)=O)C(=O)N[C@@H](CC(C)C)C(=O)N[C@@H](CCSC)C(=O)N[C@@H](Cc1cnc[nH]1)C(=O)N[C@@H](CC(N)=O)C(=O)N[C@@H](CC(C)C)C(=O)NCC(=O)N[C@@H](CCCCN)C(=O)N[C@@H](Cc1cnc[nH]1)C(=O)N[C@@H](CC(C)C)C(=O)N[C@@H](CC(N)=O)C(=O)N[C@@H](CO)C(=O)N[C@@H](CCSC)C(=O)N[C@@H](CCC(=O)O)C(=O)N[C@@H](CCCNC(=N)N)C(=O)N[C@H](C(=O)N[C@@H](CCC(=O)O)C(=O)N[C@@H](Cc1c[nH]c2ccccc12)C(=O)N[C@@H](CC(C)C)C(=O)N[C@@H](CCCNC(=N)N)C(=O)N[C@@H](CCCCN)C(=O)N[C@@H](CCCCN)C(=O)N[C@@H](CC(C)C)C(=O)N[C@@H](CCC(N)=O)C(=O)N[C@@H](CC(=O)O)C(=O)N[C@H](C(=O)N[C@@H](Cc1cnc[nH]1)C(=O)N[C@@H](CC(N)=O)C(=O)N[C@@H](Cc1ccccc1)C(=O)O)C(C)C)C(C)C` [TERIPARATIDE], the Activity in data set [6] was 81.68%; in [7], “Non-Toxic”; in [8] it was 41.75%; in [9] it was 86.08%; in data set [10] it was 52.76%.
In the case of `C[C@H](CO)[C@H]1CC[C@H]2[C@@H]3CC=C4C(C)(C)c5nnsc5C[C@]4(C)[C@H]3CC[C@]12C`, the viability at 48 h, 10 µM in data set [1] is not below 100%. Also, the inhibition at 5 µM in data set [2] was 100%. Besides, in [3], the inhibition at 10 µM is 100%. In addition, in data set [4], the inhibition at 1 µM was determined as 75.8%.
Turning to `CCCCCCNC(=O)[C@@H](C)[C@H]1CC[C@H]2[C@@H]3CC=C4C(C)(C)c5nnsc5C[C@]4(C)[C@H]3CC[C@]12C`, the viability at 48 h, 10 µM in data set [1] is not below 100%. In [11], the inhibition at 0.1 µM amounted to 50.1%. In addition, in data set [4], the inhibition at 1 µM was found to be 87.2%.
Consider `Cc1nc2c(o1)C(C)(C)C1=CC[C@H]3[C@@H]4CC[C@H]([C@H](C)CO)[C@@]4(C)CC[C@@H]3[C@@]1(C)C2`, for which the viability at 48 h, 10 µM in data set [1] is not below 100%. Also, the inhibition at 5 µM in data set [2] came to 73.8%. In addition, the inhibition at 10 µM in [3] is 89.8%. The inhibition at 1 µM in data set [4] is 43%.
Regarding `CCCNC(=O)[C@@H](C)[C@H]1CC[C@H]2[C@@H]3CC=C4C(C)(C)c5nnsc5C[C@]4(C)[C@H]3CC[C@]12C`, the viability at 48 h, 10 µM in data set [1] was not below 100%. The inhibition at 0.1 µM in data set [11] came to 72.7%. Moreover, in data set [4], the inhibition at 1 µM turned out to be 100%.
Consider `C[C@H](CO)[C@H]1CC[C@H]2[C@@H]3CC=C4C(C)(C)c5nonc5C[C@]4(C)[C@H]3CC[C@]12C`, for which the viability at 48 h, 10 µM in [1] is not below 100%. Also, the inhibition at 5 µM in [2] was 90.5%. Besides, in data set [3], the inhibition at 10 µM came to 100%. In addition, the inhibition at 1 µM in [4] came to 42.4%.
On to `CCNC(=O)CCCC[C@@H](C)[C@H]1CC[C@H]2[C@@H]3CC=C4C(C)(C)c5nnsc5C[C@]4(C)[C@H]3CC[C@]12C`, for which, in [1], the viability at 48 h, 10 µM was not below 100%. In addition, the inhibition at 0.1 µM in [11] was 7.4%. In addition, in [4], the inhibition at 1 µM worked out at 98.8%.
For the molecule `C[C@H](C(=O)Nc1ccc(Cl)cc1)[C@H]1CC[C@H]2[C@@H]3CC=C4C(C)(C)c5nnsc5C[C@]4(C)[C@H]3CC[C@]12C`, the viability at 48 h, 10 µM in data set [1] was not below 100%. Further, the inhibition at 0.1 µM in [11] is 45.2%. Further, in [4], the inhibition at 1 µM worked out at 81%.
For `CC(C)CNC(=O)[C@@H](C)[C@H]1CC[C@H]2[C@@H]3CC=C4C(C)(C)c5nnsc5C[C@]4(C)[C@H]3CC[C@]12C`, in that order: not below 100%, 72.1% and 100%.

The values are drawn from ChEMBL document CHEMBL5506037, “Synthesis of Heterocyclic Ring-Fused Bisnoralcohol Derivatives as Novel Small-Molecule Antiosteoporosis Agents” (J Med Chem, 2024).
